Data taken from patent publication US4645778A, “2-(N-pyrrolidino)-3-isobutoxy-n-substituted-phenyl-n-benzyl-propylamines, their preparation and pharmaceutical use” (Riom Laboratoires C.E.R.M. "RL-Cerm"S.A., priority 1983, dated 1987).
Like-named read-outs stand apart in the source and are kept apart here.

Experiments:
anaesthetised dog = assay: Anti-angina activity: haemodynamic effects in the anaesthetised dog; format: in vivo; settings: 5 mg.kg^-1 intravenously; for anti-anginal activity (in words): summary of Table II; for change in vivo at 5 mg/kg: Canis lupus familiaris, iv
Method: In vivo, the anti-angina activity was investigated by measuring the haemodynamic effects in the anaesthetised dog, in accordance with the method summarised below.
The following parameters were recorded on the dog anaesthetised with chloralose (100 mg.kg^-1 administered intravenously):
pulse rate, by means of subcutaneous ECG electrodes connected to a BECKMAN cardiotachymeter (branch D II),
coronary arterial flow recorded by means of a STATHAM electromagnetic flowmeter and
antitachycardiac action (inhibition of the positive chronotropic effects of isoprenaline).
These parameters were recorded continuously on a BECKMAN dynograph and at the same time the duration of the action was measured.
The compounds of the invention are administered intravenously at a dose of 5 mg.kg^-1.

papillary muscle = assay: Cardiac tropism: calcium antagonism on rabbit papillary muscle (inotropic effect of calcium chloride); settings: for PAPILLARY MUSCLE pD'2 / PAPILLARY MUSCLE pA2: rabbit papillary muscle; for cardiac anti-calcium activity / cardiac tropism (in words): cardiac test, summary of Table I
Method: (§1) In vitro, the calcium antagonism activity was investigated in accordance with the methods summarised below.
Investiqation of a cardiac tropism
A rabbit's papillary muscle was placed in a KREBS-HENSELEIT solution kept at 37° C. and was stimulated electrically at a frequency of 1.5 Hz (5 ms of pulse at 15 V).
The positive inotropic effect of calcium chloride was investigated by the method of cumulative dose-response curves.
The substances to be studied were added to the solution in which the muscle was kept, 15 minutes prior to determining the agonist curves.
(§2) The conventional parameters of molecular pharmacology are subsequently determined (pA2 for a competitive antagonism and pD'2 for a non-competitive anatagonism), using the technique of VAN ROSSUM [ARCH. INT. PHARMACODYN. THER. 143, 299-330 (1963)].

isolated aorta = assay: Vascular tropism: anti-calcium effect on rabbit isolated aorta (contraction by calcium chloride); settings: for ISOLATED AORTA pA2 / ISOLATED AORTA pD'2: rabbit isolated aorta, K+ depolarised, 37° C., 15 min; for ISOLATED AORTA pA2: competitive antagonism vs calcium chloride; for ISOLATED AORTA pD'2: non-competitive antagonism vs calcium chloride; for vascular anti-calcium activity / vascular tropism (in words): vascular test, summary of Table I
Method: as §1
Investigation of a vascular tropism
A rabbit's isolated aorta, cut into spirals, was placed in a KREBS solution kept at 37° C., free from Ca^++ and enriched with K^+ ([…] of KCL/liter) for depolarisation.
The contracting effect of cumulative concentrations of calcium chloride was investigated and the anti-calcium effect of the compounds studied was evaluated 15 minutes after their addition to the solution in which the aorta was kept.
as §2

[1] = read-out: CORONARY FLOW Variation
[2] = inhibition of positive chronotropic effects of isoprenaline, read-out: ANTI-TACHYCARDIAC ACTION Variation
[3] = inhibition of positive chronotropic effects of isoprenaline
[4] = 37° C., 15 min preincubation, competitive antagonism vs calcium chloride

| Structure (SMILES) | CORONARY FLOW Duration (anaesthetised dog) | PULSE RATE Duration (anaesthetised dog) | anti-anginal activity (in words) (anaesthetised dog) | change in vivo at 5 mg/kg (anaesthetised dog; [1]) | change in vivo at 5 mg/kg (anaesthetised dog; read-out: PULSE RATE Variation) | change in vivo at 5 mg/kg (anaesthetised dog; [2]) | ANTI-TACHYCARDIAC ACTION Duration (anaesthetised dog; [3]) | PAPILLARY MUSCLE pD'2 (papillary muscle; at 10^-4 M, 15 min) | cardiac anti-calcium activity / cardiac tropism (in words) (papillary muscle) | PAPILLARY MUSCLE pA2 (papillary muscle; [4]) | ISOLATED AORTA pA2 (isolated aorta) | ISOLATED AORTA pD'2 (isolated aorta) | PAPILLARY MUSCLE pA2 (papillary muscle; at 10^-4 M) | PAPILLARY MUSCLE pD'2 (papillary muscle; 37° C., 15 min preincubation, non-competitive antagonism vs calcium chloride) | PAPILLARY MUSCLE pD'2 (papillary muscle; at 10^-4 M) | vascular anti-calcium activity / vascular tropism (in words) (isolated aorta) | PAPILLARY MUSCLE pA2 (papillary muscle; at 10^-4 M, 15 min) | PAPILLARY MUSCLE pA2 (papillary muscle; at 10^-5 M, 15 min) |
| --- | --- | --- | --- | --- | --- | --- | --- | --- | --- | --- | --- | --- | --- | --- | --- | --- | --- | --- |
| COc1ccc(N(Cc2ccccc2)CC(COCC(C)C)N2CCCC2)cc1 (stereo not shown) [Compound 3] | 20 min | > 45 min | most valuable anti-anginal activity | 196% | -24% | -63% | 30 min | 4.5 | more marked cardiac tropism | 4.87 ± 0.40 | 4.70 ± 0.38 | 4.00 ± 0.24 | – | – | – | – | – | – |
| CC(C)COCC(CN(Cc1ccccc1)c1cc(Cl)cc(Cl)c1)N1CCCC1 (stereo not shown) [Compound 7] | 5 min | 45 min | – | 31% | -23% | -54% | 45 min | – | – | – | 4.70 ±0.60 | 3.85 ± 0.43 | Inactive | – | – | – | – | – |
| CC(C)COCC(CN(Cc1ccccc1)c1ccc(Cl)c(Cl)c1)N1CCCC1 (stereo not shown) [Compound 2] | 10 min | > 45 min | most valuable anti-anginal activity | 39% | -11% | -51% | 15 min | – | – | – | – | – | – | – | – | – | – | – |
| Cc1ccc(N(Cc2ccccc2)CC(COCC(C)C)N2CCCC2)cc1 (stereo not shown) [Compound 1] | – | – | – | – | – | – | – | – | more marked cardiac tropism | 4.30 ± 0.24 | 4.83 ± 0.28 | 5.08 ± 0.27 | – | 3.81 ± 0.20 | – | – | – | – |
| CC(C)COCC(CN(Cc1ccccc1)c1ccc2c(c1)OCO2)N1CCCC1 (stereo not shown) [Compound 11, 2-(N-pyrrolidino)-3-isobutoxy-N-(3,4-methylenedioxy)-phenyl-N-benzyl-propylamine] | 20 min | > 45 min | most valuable anti-anginal activity | 116% | -50% | -47% | 45 min | – | about the highest activity | 5.44 ± 0.26 | 4.94 ± 0.43 | 4.80 ± 0.05 | – | – | total | about the highest activity | – | – |
| CC(C)COCC(CN(Cc1ccccc1)c1cccc(C(F)(F)F)c1)N1CCCC1 (stereo not shown) [Compound 6] | 1 min | > 45 min | – | 20% | -32% | -64% | > 45 min | – | – | – | 5.19 ± 0.37 | 3.73 ± 0.50 | – | – | – | predominantly vascular tropism | 3.41 | – |
| Cc1cccc(C)c1N(Cc1ccccc1)CC(COCC(C)C)N1CCCC1 (stereo not shown) [Compound 8] | 15 min | 35 min | most valuable anti-anginal activity | 85% | -36% | -28% | 15 min | 3.69 | noteworthy | – | 5.21 ± 0.65 | 4.87 ± 0.48 | – | – | – | noteworthy | – | 4.67 |
| CC(C)COCC(CN(Cc1ccccc1)c1cccc(Cl)c1)N1CCCC1 (stereo not shown) [Compound 5, 2-(N-pyrrolidino)-3-isobutoxy-N-(3-chloro)-phenyl-N-benzyl-propylamine] | 15 min | > 45 min | most valuable anti-anginal activity | 98% | -20% | -45% | 15 min | – | – | – | 4.83 ± 0.27 | 4.71 ± 0.20 | Inactive | – | – | – | – | – |
| CC(C)COCC(CN(Cc1ccccc1)c1ccc(Cl)cc1)N1CCCC1 (stereo not shown) [Compound 4] | 3 min | > 45 min | – | 32% | -27% | -60% | > 45 min | – | – | – | – | – | – | – | – | – | – | – |
